Reference: patent publication US20020137929A1, “1 - (3-heterocyclylphenyl) isothiourea, -isourea, -guanidine and -amidine herbicidal agents” (Intellectual Property Department, BASF Aktiengesellschaft, priority 1998, published 2002)

Tests used:
ABUTH (Velvetleaf) = assay: Postemergence herbicidal evaluation; assay type: in vivo, Abutilon theophrasti; settings: postemergence
How it was run: (§1)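 Herbicidal effect was judged by eye on a 0–9 scale covering stand, vigor, deformity, size and chlorosis, compared with controls, four to five weeks after seedlings about two weeks old were sprayed (40 psi, ~0.0156–0.500 kg/ha).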

AMBEL (Ragweed, Common) = assay: Postemergence herbicidal evaluation; assay type: in vivo, Ambrosia artemisifolia; settings: postemergence
How it was run: as §1

[1] = tested on: CHEAL (Lambsquarters, Common); assay: Postemergence herbicidal evaluation; assay type: in vivo, Chenopodium album; settings: postemergence
How it was run: as §1

GALAP (Galium) [2] = assay: Postemergence herbicidal evaluation; assay type: in vivo, Galium aparine; settings: postemergence
How it was run: as §1

[3] = tested on: IPOHE (Morningglory, Ivyleaf); assay: Postemergence herbicidal evaluation; assay type: in vivo, Ipomoea hederacea; settings: postemergence
How it was run: as §1

SETVI (Foxtail, Green) [4] = assay: Postemergence herbicidal evaluation; assay type: in vivo, Setaria viridis; settings: postemergence
How it was run: as §1

[5] = tested on: GLXMAW (Soybean, Williams); assay: Postemergence herbicidal evaluation; assay type: in vivo, Glycine max, (L.) Merr. cv Williams; settings: postemergence
How it was run: as §1

ZEAMX (Corn, Field) = assay: Postemergence herbicidal evaluation; assay type: in vivo, Zea mays; settings: postemergence
How it was run: as §1

[6] = tested on: CHEAL (Lambsquarters, Common); assay: Preemergence herbicidal evaluation; assay type: in vivo, Chenopodium album; settings: rated 4-5 weeks after treatment
How it was run: (§2)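 Visual 0-9 rating vs control (stand, vigor, malformation, size, chlorosis, overall appearance), scored 4-5 wk after spraying. Seeded soil cups were treated preemergence with compound in aqueous acetone, ~0.0156-0.500 kg/ha equivalent.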

GALAP (Galium) [7] = assay: Preemergence herbicidal evaluation; assay type: in vivo, Galium aparine; settings: rated 4-5 weeks after treatment
How it was run: as §2

[8] = tested on: IPOHE (Morningglory, Ivyleaf); assay: Preemergence herbicidal evaluation; assay type: in vivo, Ipomoea hederacea; settings: rated 4-5 weeks after treatment
How it was run: as §2

ECHCG (Barnyardgrass) = assay: Preemergence herbicidal evaluation; assay type: in vivo, Echinochloa crus-galli; settings: rated 4-5 weeks after treatment
How it was run: as §2

SETVI (Foxtail, Green) [9] = assay: Preemergence herbicidal evaluation; assay type: in vivo, Setaria viridis; settings: rated 4-5 weeks after treatment
How it was run: as §2

[10] = tested on: GLXMAW (Soybean, Williams); assay: Preemergence herbicidal evaluation; assay type: in vivo, Glycine max, (L.) Merr. cv Williams; settings: rated 4-5 weeks after treatment
How it was run: as §2

CYPIR (Rice Flatsedge) = assay: Preemergence weed control under flooded paddy conditions; assay type: in vivo, Cyperus iria; settings: rated 3-4 weeks after treatment
How it was run: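 Ratings on a 0-9 visual scale cover stand, vigor, malformation, size, chlorosis and overall appearance relative to a control, taken three to four weeks post-treatment. Application was into flood water over freshly sown silt loam at roughly 0.0313 to 0.500 kg/ha.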

CYPSE (Flatsedge) = assay: as above; assay type: in vivo, Cyperus serotinus; settings: rated 3-4 weeks after treatment
How it was run: (§3)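 Flooded-pot preemergence screen with silt loam and seeds in the upper 0.5 cm. Dose about 0.0313 to 0.500 kg/ha, delivered into flood water; visual 0-9 score after 3 to 4 weeks.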

[11] = tested on: SAGPY (Arrowhead (Pygmaea)); assay: as above; assay type: in vivo, Sagittaria pygmaea; settings: rated 3-4 weeks after treatment
How it was run: as §3

Question: For `COC(=O)C(C)OC(=O)CN1C(=O)CSC1=Nc1cc(-n2c(=O)cc(C(F)(F)F)n(C)c2=O)c(F)cc1Cl` (stereo not drawn) [Compound 116, 2-{{2-Chloro-5-[3,6-dihydro-3-methyl-2,6-dioxo-4-(trifluoromethyl)-1(2H)-pyrimidinyl]-4-fluorophenyl}imino}-4-oxo-3-thiazolidineacetic acid, ester with methyl lactate], which “Herbicidal rating ABUTH” value (ABUTH (Velvetleaf); rate 0.0158 kg/ha) is on record?
Answer: 9.0

Question: And the “Herbicidal rating ABUTH” value (ABUTH (Velvetleaf); rate 0.0315 kg/ha)?
Answer: 9.0

Question: And the “Herbicidal rating ABUTH” value (ABUTH (Velvetleaf); rate 0.0630 kg/ha)?
Answer: 9.0

Question: What about the “Herbicidal rating AMBEL” value (AMBEL (Ragweed, Common); rate 0.0158 kg/ha) of the same compound?
Answer: 9.0

Question: What about the “Herbicidal rating AMBEL” value (AMBEL (Ragweed, Common); rate 0.0315 kg/ha) of the same compound?
Answer: 9.0

Question: What about the “Herbicidal rating AMBEL” value (AMBEL (Ragweed, Common); rate 0.0630 kg/ha) of the same compound?
Answer: 7.0

Question: And the “Herbicidal rating CHEAL” value ([1]; rate 0.0158 kg/ha)?
Answer: 4.0

Question: And the “Herbicidal rating CHEAL” value ([1]; rate 0.0315 kg/ha)?
Answer: 5.0

Question: And the “Herbicidal rating CHEAL” value ([1]; rate 0.0630 kg/ha)?
Answer: 9.0

Question: And the “Herbicidal rating GALAP” value (GALAP (Galium) [2]; rate 0.0158 kg/ha)?
Answer: 0.0

Question: What about the “Herbicidal rating GALAP” value (GALAP (Galium) [2]; rate 0.0315 kg/ha) of the same compound?
Answer: 0.0

Question: And the “Herbicidal rating GALAP” value (GALAP (Galium) [2]; rate 0.0630 kg/ha)?
Answer: 0.0

Question: What about the “Herbicidal rating IPOHE” value ([3]; rate 0.0158 kg/ha) of the same compound?
Answer: 9.0

Question: And the “Herbicidal rating IPOHE” value ([3]; rate 0.0315 kg/ha)?
Answer: 9.0

Question: What about the “Herbicidal rating IPOHE” value ([3]; rate 0.0630 kg/ha) of the same compound?
Answer: 9.0

Question: And the “Herbicidal rating SETVI” value (SETVI (Foxtail, Green) [4]; rate 0.0158 kg/ha)?
Answer: 1.0

Question: What about the “Herbicidal rating SETVI” value (SETVI (Foxtail, Green) [4]; rate 0.0315 kg/ha) of the same compound?
Answer: 3.0

Question: What about the “Herbicidal rating SETVI” value (SETVI (Foxtail, Green) [4]; rate 0.0630 kg/ha) of the same compound?
Answer: 3.0

Question: What about the “Herbicidal rating GLXMAW” value ([5]; rate 0.0158 kg/ha) of the same compound?
Answer: 5.5

Question: What about the “Herbicidal rating GLXMAW” value ([5]; rate 0.0315 kg/ha) of the same compound?
Answer: 5.5

Question: What about the “Herbicidal rating GLXMAW” value ([5]; rate 0.0630 kg/ha) of the same compound?
Answer: 5.5

Question: And the “Herbicidal rating ZEAMX” value (ZEAMX (Corn, Field); rate 0.0158 kg/ha)?
Answer: 4.5

Question: And the “Herbicidal rating ZEAMX” value (ZEAMX (Corn, Field); rate 0.0315 kg/ha)?
Answer: 4.5

Question: What about the “Herbicidal rating ZEAMX” value (ZEAMX (Corn, Field); rate 0.0630 kg/ha) of the same compound?
Answer: 4.5

Question: What about the “Preemergence herbicidal rating CHEAL” value ([6]; rate 0.0156 kg/ha) of the same compound?
Answer: 9.0

Question: And the “Preemergence herbicidal rating CHEAL” value ([6]; rate 0.0313 kg/ha)?
Answer: 9.0

Question: And the “Preemergence herbicidal rating CHEAL” value ([6]; rate 0.0625 kg/ha)?
Answer: 4.0

Question: What about the “Preemergence herbicidal rating CHEAL” value ([6]; rate 0.1250 kg/ha) of the same compound?
Answer: 7.0

Question: What about the “Preemergence herbicidal rating CHEAL” value ([6]; rate 0.2500 kg/ha) of the same compound?
Answer: 9.0

Question: What about the “Preemergence herbicidal rating GALAP” value (GALAP (Galium) [7]; rate 0.0156 kg/ha) of the same compound?
Answer: 0.0

Question: And the “Preemergence herbicidal rating GALAP” value (GALAP (Galium) [7]; rate 0.0313 kg/ha)?
Answer: 0.0

Question: What about the “Preemergence herbicidal rating GALAP” value (GALAP (Galium) [7]; rate 0.0625 kg/ha) of the same compound?
Answer: 0.0

Question: What about the “Preemergence herbicidal rating GALAP” value (GALAP (Galium) [7]; rate 0.1250 kg/ha) of the same compound?
Answer: 0.0

Question: What about the “Preemergence herbicidal rating GALAP” value (GALAP (Galium) [7]; rate 0.2500 kg/ha) of the same compound?
Answer: 7.0

Question: What about the “Preemergence herbicidal rating IPOHE” value ([8]; rate 0.0156 kg/ha) of the same compound?
Answer: 0.0

Question: What about the “Preemergence herbicidal rating IPOHE” value ([8]; rate 0.0313 kg/ha) of the same compound?
Answer: 0.0

Question: And the “Preemergence herbicidal rating IPOHE” value ([8]; rate 0.0625 kg/ha)?
Answer: 0.0

Question: What about the “Preemergence herbicidal rating IPOHE” value ([8]; rate 0.1250 kg/ha) of the same compound?
Answer: 1.0

Question: And the “Preemergence herbicidal rating IPOHE” value ([8]; rate 0.2500 kg/ha)?
Answer: 3.0

Question: What about the “Preemergence herbicidal rating ECHCG” value (ECHCG (Barnyardgrass); rate 0.0156 kg/ha) of the same compound?
Answer: 0.0

Question: And the “Preemergence herbicidal rating ECHCG” value (ECHCG (Barnyardgrass); rate 0.0313 kg/ha)?
Answer: 0.0

Question: What about the “Preemergence herbicidal rating ECHCG” value (ECHCG (Barnyardgrass); rate 0.0625 kg/ha) of the same compound?
Answer: 0.0

Question: What about the “Preemergence herbicidal rating ECHCG” value (ECHCG (Barnyardgrass); rate 0.1250 kg/ha) of the same compound?
Answer: 0.0

Question: What about the “Preemergence herbicidal rating ECHCG” value (ECHCG (Barnyardgrass); rate 0.2500 kg/ha) of the same compound?
Answer: 0.0

Question: What about the “Preemergence herbicidal rating SETVI” value (SETVI (Foxtail, Green) [9]; rate 0.0156 kg/ha) of the same compound?
Answer: 0.0

Question: What about the “Preemergence herbicidal rating SETVI” value (SETVI (Foxtail, Green) [9]; rate 0.0313 kg/ha) of the same compound?
Answer: 0.0

Question: What about the “Preemergence herbicidal rating SETVI” value (SETVI (Foxtail, Green) [9]; rate 0.0625 kg/ha) of the same compound?
Answer: 0.0

Question: What about the “Preemergence herbicidal rating SETVI” value (SETVI (Foxtail, Green) [9]; rate 0.1250 kg/ha) of the same compound?
Answer: 0.0

Question: What about the “Preemergence herbicidal rating SETVI” value (SETVI (Foxtail, Green) [9]; rate 0.2500 kg/ha) of the same compound?
Answer: 3.0

Question: What about the “Preemergence herbicidal rating GLXMAW” value ([10]; rate 0.0156 kg/ha) of the same compound?
Answer: 1.0

Question: What about the “Preemergence herbicidal rating GLXMAW” value ([10]; rate 0.0313 kg/ha) of the same compound?
Answer: 1.0

Question: What about the “Preemergence herbicidal rating GLXMAW” value ([10]; rate 0.0625 kg/ha) of the same compound?
Answer: 0.0

Question: What about the “Preemergence herbicidal rating GLXMAW” value ([10]; rate 0.1250 kg/ha) of the same compound?
Answer: 1.0

Question: And the “Preemergence herbicidal rating GLXMAW” value ([10]; rate 0.2500 kg/ha)?
Answer: 2.0

Question: And the “herbicidal effect rating, CYPIR” value (CYPIR (Rice Flatsedge); 0.0313 kg/ha)?
Answer: 3.0

Question: What about the “herbicidal effect rating, CYPIR” value (CYPIR (Rice Flatsedge); 0.0625 kg/ha) of the same compound?
Answer: 6.0

Question: What about the “CYPIR herbicidal effect rating” value (CYPIR (Rice Flatsedge); 0.1250 kg/ha) of the same compound?
Answer: 7.0

Question: And the “CYPIR herbicidal effect rating” value (CYPIR (Rice Flatsedge); 0.2500 kg/ha)?
Answer: 7.0

Question: What about the “herbicidal effect rating, CYPSE” value (CYPSE (Flatsedge); 0.0313 kg/ha) of the same compound?
Answer: 6.0

Question: What about the “herbicidal effect rating, CYPSE” value (CYPSE (Flatsedge); 0.0625 kg/ha) of the same compound?
Answer: 6.0

Question: And the “CYPSE herbicidal effect rating” value (CYPSE (Flatsedge); 0.1250 kg/ha)?
Answer: 7.0

Question: And the “CYPSE herbicidal effect rating” value (CYPSE (Flatsedge); 0.2500 kg/ha)?
Answer: 8.0

Question: What about the “herbicidal effect rating, SAGPY” value ([11]; 0.0313 kg/ha) of the same compound?
Answer: 2.0

Question: And the “herbicidal effect rating, SAGPY” value ([11]; 0.0625 kg/ha)?
Answer: 3.0

Question: What about the “SAGPY herbicidal effect rating” value ([11]; 0.1250 kg/ha) of the same compound?
Answer: 5.0

Question: What about the “SAGPY herbicidal effect rating” value ([11]; 0.2500 kg/ha) of the same compound?
Answer: 6.0
